Measured values reported in US11492348B2, “Tri-substituted aryl and heteroaryl derivatives as modulators of PI3-kinase and autophagy pathways” (Neuropore Therapies, Inc., priority 2018, dated 2022).
Where a name gives a salt, the structure may show the parent alone.

Columns and labels:
[1] = target: PI3Kα (Homo sapiens (Human), UniProt P42336); assay: Inhibition of PI3Kα (ADP-Glo kinase activity assay, ATP to ADP conversion); type: biochemical; conditions: 25 μM PIP2:PS, 60 μM ATP, 30 min reaction, luminescence
How it was run: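 Recombinant active PI3Kα (1.1 nM) in HEPES pH 7.5 buffer with 6 mM MgCl2 and 8 mM DTT was preincubated with compound for 0 or 3 h. The reaction ran for 30 min with 25 µM PIP2:PS and 60 µM ATP, and ADP formation was read by ADP-Glo luminescence. IC50 came from a 12-point, 1:3 series fitted with a 4-parameter model, bottom fixed to reference inhibitor controls and top floating.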

[2] = target: mTor kinase (Homo sapiens (Human), UniProt P42345); assay: mTor assay (33P-ATP filter-binding kinase assay); type: biochemical; conditions: 2 hours at room temperature
Procedure: The substrate was prepared in base reaction buffer (20 mM Hepes (pH 7.5), 10 mM MgCl2, 1 mM EGTA, 0.02% Brij35, 0.02 mg/ml BSA, 0.1 mM Na3VO4, 2 mM DTT, 1% DMSO), and required cofactors were added to the substrate solution. The mTor kinase was delivered into the substrate solution, and the solution was gently mixed. Testing compounds were dissolved in 100% DMSO to specific concentration. The serial dilution was conducted by Integra Viaflo Assist in DMSO. The compounds were delivered into the kinase reaction mixture by Acoustic technology (Echo550; nanoliter range), and the reaction mixture was incubated for 20 min at room temperature. Then, 33P-ATP (Specific activity 10 μCi/μl) was delivered into the reaction mixture to initiate the reaction. The reaction mixture was incubated for 2 hours at room temperature. Radioactivity was detected by a filter-binding method. Kinase activity data were expressed as the percent remaining kinase activity in test samples compared to vehicle (dimethyl sulfoxide) reactions. IC50 values and curve fits were obtained using Prism (GraphPad Software).

[3] = test system: (Ser-473) pAKT in B103 (Rat Neuroblastoma) cells; assay: pAKT protocol: loss of (Ser-473) pAKT by AlphaScreen in insulin-stimulated B103 cells; type: cell-based; conditions: (Ser-473) pAKT/total AKT IC50, 2-hour pretreatment, 2.5 μg/mL insulin 20 minutes
How it was run: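 Rat neuroblastoma B103 cells, serum-starved 6 h, were pretreated 2 h with inhibitors (6-point 1:3 series, 0.5% DMSO) before insulin stimulation. Lysate Ser-473 pAKT and total AKT measured by AlphaScreen; pAKT/total AKT ratio fitted to 4-parameter curve, bottom constrained to reference control, top anchored to DMSO.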

PI3Kα, sequence (P42336 whole entry): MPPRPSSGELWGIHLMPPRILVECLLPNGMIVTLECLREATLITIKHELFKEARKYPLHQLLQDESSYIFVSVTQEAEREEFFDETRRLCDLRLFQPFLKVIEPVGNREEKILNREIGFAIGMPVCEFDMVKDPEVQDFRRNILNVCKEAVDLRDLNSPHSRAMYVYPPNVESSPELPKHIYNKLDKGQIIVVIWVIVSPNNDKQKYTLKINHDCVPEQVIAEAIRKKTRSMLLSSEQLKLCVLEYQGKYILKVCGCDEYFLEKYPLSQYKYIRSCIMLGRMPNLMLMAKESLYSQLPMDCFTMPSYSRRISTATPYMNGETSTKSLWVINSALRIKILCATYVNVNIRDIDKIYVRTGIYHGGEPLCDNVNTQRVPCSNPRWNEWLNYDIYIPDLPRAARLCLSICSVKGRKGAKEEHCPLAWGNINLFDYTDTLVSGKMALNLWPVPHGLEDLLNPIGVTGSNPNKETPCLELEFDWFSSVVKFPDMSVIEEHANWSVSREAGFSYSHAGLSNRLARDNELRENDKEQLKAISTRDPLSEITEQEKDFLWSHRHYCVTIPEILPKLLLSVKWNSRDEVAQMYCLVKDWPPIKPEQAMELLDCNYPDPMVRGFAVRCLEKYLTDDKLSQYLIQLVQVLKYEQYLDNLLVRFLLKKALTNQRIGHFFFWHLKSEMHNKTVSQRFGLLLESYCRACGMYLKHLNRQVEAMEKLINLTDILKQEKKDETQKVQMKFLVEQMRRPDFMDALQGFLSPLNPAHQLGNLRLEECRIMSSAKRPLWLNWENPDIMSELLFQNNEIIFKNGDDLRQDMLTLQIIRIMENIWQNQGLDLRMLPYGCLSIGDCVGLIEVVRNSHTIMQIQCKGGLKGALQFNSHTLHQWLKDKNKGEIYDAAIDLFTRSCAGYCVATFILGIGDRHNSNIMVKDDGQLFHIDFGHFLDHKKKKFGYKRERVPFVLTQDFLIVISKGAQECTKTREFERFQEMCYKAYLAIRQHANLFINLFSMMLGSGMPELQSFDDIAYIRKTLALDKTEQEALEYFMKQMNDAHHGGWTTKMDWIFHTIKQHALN
PI3Kα, sequence (P27986 whole entry partner): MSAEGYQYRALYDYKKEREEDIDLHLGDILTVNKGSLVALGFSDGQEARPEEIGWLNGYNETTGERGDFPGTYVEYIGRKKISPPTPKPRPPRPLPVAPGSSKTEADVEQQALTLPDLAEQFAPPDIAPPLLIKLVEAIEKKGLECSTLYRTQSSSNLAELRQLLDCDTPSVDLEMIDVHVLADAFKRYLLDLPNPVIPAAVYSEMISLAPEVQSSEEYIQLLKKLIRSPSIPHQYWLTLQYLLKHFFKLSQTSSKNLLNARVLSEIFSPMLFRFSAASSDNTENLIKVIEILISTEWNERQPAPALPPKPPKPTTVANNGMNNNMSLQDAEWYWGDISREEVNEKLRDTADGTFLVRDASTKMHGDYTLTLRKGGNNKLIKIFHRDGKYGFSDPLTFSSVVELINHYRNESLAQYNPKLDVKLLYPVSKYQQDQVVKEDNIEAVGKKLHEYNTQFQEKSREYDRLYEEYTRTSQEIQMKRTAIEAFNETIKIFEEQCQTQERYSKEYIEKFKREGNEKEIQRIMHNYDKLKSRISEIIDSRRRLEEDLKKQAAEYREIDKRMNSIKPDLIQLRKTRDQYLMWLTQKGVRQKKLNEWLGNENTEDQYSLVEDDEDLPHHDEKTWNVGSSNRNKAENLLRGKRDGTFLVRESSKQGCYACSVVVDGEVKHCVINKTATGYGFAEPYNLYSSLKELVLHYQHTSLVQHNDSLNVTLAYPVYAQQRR

Row | SMILES | PI3Ka IC50 [1] [nM] | IC50 [2] [nM] | IC50 [3] [nM]
1 | Nc1cc(C(F)(F)F)c(-c2cc(N3CCOCC3)cc(S(=O)(=O)Cc3ccccc3)c2)cn1 [Compound 32, 5-(3-(benzylsulfonyl)-5-morpholinophenyl)-4-(trifluoromethyl)pyridin-2-amine] | 450 | > 33000 | 6300
2 | Nc1ncc(-c2cc(N3CCOCC3)cc(S(=O)(=O)Cc3ccc(F)cc3F)c2)cn1 [Compound 26, 5-(3-((2,4-difluorobenzyl)sulfonyl)-5-morpholinophenyl)pyrimidin-2-amine] | 270 | 5300 | 6200
3 | Nc1ncc(-c2cc(C(F)(F)c3ccccc3)cc(N3CCOCC3)n2)cn1 [Compound 123, 5-(4-(Difluoro(phenyl)methyl)-6-morpholinopyridin-2-yl)pyrimidin-2-amine] | 46 | 560 | 460
4 | Cc1ccccc1Oc1cc(-c2cnc(N)nc2)nc(N2CCOCC2)c1 [Compound 137, 5-(6-morpholino-4-(o-tolyloxy)pyridin-2-yl)pyrimidin-2-amine] | 75 | 370 | 450
5 | N#Cc1ccc(S(=O)(=O)c2cc(-c3cnc(N)cc3C(F)(F)F)cc(N3CCOCC3)c2)cc1 [Compound 18, 4-((3-(6-amino-4-(trifluoromethyl)pyridin-3-yl)-5-morpholinophenyl)sulfonyl)benzonitrile] | 3900 | 100000 | 100000
6 | CCNC(=O)N1CC(S(=O)(=O)c2cc(-c3cnc(N)nc3)cc(N3CCOCC3)c2)C1 [Compound 93, 3-((3-(2-aminopyrimidin-5-yl)-5-morpholinophenyl)sulfonyl)-N-ethylazetidine-1-carboxamide] | 88 | 870 | 5440
7 | Nc1ncc(-c2cc(C(F)(F)C3CCOCC3)cc(N3CCOCC3)n2)cn1 [Compound 133, 5-(4-(difluoro(tetrahydro-2H-pyran-4-yl)methyl)-6-morpholinopyridin-2-yl)pyrimidin-2-amine] | 12 | 440 | 400
8 | Nc1ncc(-c2cc(N3CCOCC3)cc(S(=O)(=O)C3COc4ccccc43)c2)cn1 (stereo not drawn) [Compound 119, 5-(3-((2,3-dihydrobenzofuran-3-yl)sulfonyl)-5-morpholinophenyl)pyrimidin-2-amine] | 110 | 4700 | 4000
9 | Nc1ncc(-c2cc(N3CCOCC3)cc(S(=O)(=O)Cc3c[nH]c4ccccc34)c2)cn1 [48 (as a TFA salt), 5-(3-(((1H-indol-3-yl)methyl)sulfonyl)-5-morpholinophenyl)pyrimidin-2-amine] | 470 | 6390 | > 50000
10 | CC(C)(C)OC(=O)N1CC(S(=O)(=O)c2cc(-c3cnc(N)nc3)cc(N3CCOCC3)c2)C1 [Compound 54, tert-butyl 3-((3-(2-aminopyrimidin-5-yl)-5-morpholinophenyl)sulfonyl) azetidine-1-carboxylate] | 130 | 590 | 2460
11 | Nc1ncc(-c2cc(N3CCOCC3)cc(S(=O)(=O)Cc3ccccc3)c2)cn1 [Compound 23, 5-(3-(benzylsulfonyl)-5-morpholinophenyl)pyrimidin-2-amine] | 100 | 3000 | 8500
12 | CC(=O)N1CC(S(=O)(=O)c2cc(-c3cnc(N)nc3)cc(N3CCOCC3)c2)C1 [Compound 68, 1-(3-((3-(2-aminopyrimidin-5-yl)-5-morpholinophenyl)sulfonyl)azetidin-1-yl)ethan-1-one] | 47 | 1210 | 4660
13 | Nc1ncc(-c2cc(S(=O)(=O)c3ccccc3)cc(N3CCOCC3)n2)cn1 [Compound 115, 5-(6-morpholino-4-(phenylsulfonyl)pyridin-2-yl)pyrimidin-2-amine] | 66 | 63 | 570
14 | Nc1ncc(-c2cc(C(=O)c3ccccc3)cc(N3CCOCC3)n2)cn1 [Compound 122, (2-(2-aminopyrimidin-5-yl)-6-morpholinopyridin-4-yl)(phenyl)methanone] | 37 | 510 | 480
15 | Nc1ncc(-c2cc(N3CCOCC3)cc(S(=O)(=O)Cc3c[nH]cn3)c2)cn1 [59 (as a TFA salt), 5-(3-(((1H-imidazol-4-yl)methyl)sulfonyl)-5-morpholinophenyl)pyrimidin-2-amine] | 460 | 4600 | 36100
16 | O=S(=O)(Cc1ccc(F)cc1)c1cc(-c2cccc(O)c2)cc(N2CCOCC2)c1 [Compound 41, 3′-((4-fluorobenzyl)sulfonyl)-5′-morpholino-[1,1′-biphenyl]-3-ol] | 530 | 4270 | 860
17 | Nc1ncc(-c2cc(N3CCOCC3)cc(S(=O)(=O)[C@@H]3CCOC3)c2)cn1 [Compound 52, (R)-5-(3-morpholino-5-((tetrahydrofuran-3-yl)sulfonyl)phenyl)pyrimidin-2-amine] | 130 | 730 | 3460
18 | CC(=O)Nc1ccc(S(=O)(=O)c2cc(-c3cnc(N)nc3)cc(N3CCOCC3)c2)cc1 [Compound 22, N-(4-((3-(2-aminopyrimidin-5-yl)-5-morpholinophenyl)sulfonyl)phenyl)acetamide] | 2800 | 8690 | 39000
19 | Nc1ncc(-c2cc(N3CCOCC3)cc(S(=O)(=O)C3CCOC3)c2)cn1 (stereo not drawn) [Compound 51, 5-(3-morpholino-5-((tetrahydrofuran-3-yl)sulfonyl)phenyl)pyrimidin-2-amine] | 120 | 460 | 2120
20 | Nc1ncc(-c2cc(N3CCOCC3)cc(S(=O)(=O)c3ccc(OC(F)(F)F)cc3)c2)cn1 [Compound 15, 5-(3-morpholino-5-((4-(trifluoromethoxy)phenyl)sulfonyl)phenyl) pyrimidin-2-amine] | 3500 | 22000 | 100000
21 | Nc1ncc(-c2cc(N3CCOCC3)cc(S(=O)(=O)C3CCC(F)(F)CC3)c2)cn1 [Compound 88, 5-(3-((4,4-difluorocyclohexyl)sulfonyl)-5-morpholinophenyl)pyrimidin-2-amine] | 530 | 2460 | 6540
22 | Nc1ncc(-c2cc(N3CCOCC3)cc(S(=O)(=O)c3ccc(F)c(Cl)c3)c2)cn1 [Compound 11, 5-(3-((3-chloro-4-fluorophenyl)sulfonyl)-5-morpholinophenyl)pyrimidin-2-amine] | 1400 | 22000 | 100000
23 | Nc1ncc(-c2cc(N3CCOCC3)cc(S(=O)(=O)C3CCOCC3)c2)cn1 [Compound 62, 5-(3-morpholino-5-((tetrahydro-2H-pyran-4-yl)sulfonyl)phenyl)pyrimidin-2-amine] | 330 | 1870 | 6470
24 | Nc1ncc(-c2cc(C(=O)c3ccccc3Cl)cc(N3CCOCC3)n2)cn1 [Compound 138, (2-(2-aminopyrimidin-5-yl)-6-morpholinopyridin-4-yl)(2-chlorophenyl)methanone] | 14 | 1100 | 190
25 | Nc1ncc(-c2cc(OC3CN(C(=O)C4CC4)C3)cc(N3CCOCC3)n2)cn1 [Compound 129, (3-((2-(2-aminopyrimidin-5-yl)-6-morpholinopyridin-4-yl)oxy)azetidin-1-yl)(cyclopropyl)methanone] | 34 | 2950 | 3460
26 | N#Cc1ccc(S(=O)(=O)c2cc(-c3cnc(N)nc3)cc(N3CCOCC3)c2)cc1 [Compound 10, 4-((3-(2-aminopyrimidin-5-yl)-5-morpholinophenyl)sulfonyl)benzonitrile] | 460 | 640 | 30700
